For orientation: IC50 means the midpoint of a concentration-inhibition curve.

The test system of this assay is F. tularensis Schu4. The assay can be described thus: microbe, parasite or virus in culture. The assay is classed as cell-based. The note with it: Francisella tularensis, SCHU4, 44 h, read-out: IC50 of F. tularensis Schu4 growth inhibition.

On to `O=CN(O)CCCP(=O)(O)O` [fosmidomycin], for which the IC50 amounted to 5 µM.

These data come from patent US9272027B1 (priority 2014, dated 2016).
